# Source: patent US6441206B1, “Use of organic acid esters in dietary fat” (Raisio Benecol Ltd., priority 1997, dated 2002)
# Columns and labels:
# [1] = test system: total serum cholesterol; conditions: daily supply of plant sterol 2-3 g; cited from earlier work
# [2] = test system: blood cholesterol; conditions: in vivo; cited from earlier work
# [3] = test system: cholesterol absorption; conditions: infusion test; cited from earlier work
# [4] = test system: cholesterol absorption; conditions: cited from earlier work; for cholesterol absorption lowering effect: molar quantities of the fatty acid esters
# [5] = test system: triglyceride content of liver; conditions: cited from earlier work
# [6] = test system: triglyceride content of the blood serum; conditions: rats; cited from earlier work
# [7] = test system: white male mice; conditions: 3.5 g dose per 1 kg live weight; cited from earlier work
# [8] = thermal resistance of light spread at 45° C.; format: physicochemical; conditions: fat component with 5% ester, 45° C. up to 4 hours, mixed after return to room temperature
# Description: The polarity of the sterol/stanol esters described above is an extremely useful property. It is characteristic of compounds according to the invention, e.g. β-sitosterol dicarboxylic acid hemiesters and citrates that in lipid solutions (e.g. 2.5-5% of the fat component) they promote the mixing of the lipid and the water. […] The prepared light spread also lasted better than the comparative sample when heated to 45° C. for up to 4 hours. By improved thermal resistance is meant that after 2 hours at 45° C., more oil had separated from the comparative sample than from the sterol-containing sample. Over the next 2 hours, the separation of oil from the comparative sample continued. In the sterol-containing spread, however, negative change had ceased.
# [9] = solubility in alcohol (ethanol) and lipids; format: physicochemical
# Excerpt: According to one preferred embodiment of the invention, β-sitosterols are esterified and sterol esters are hydrogenated to form stanols. […] This achieves the significant advantage that hydrogenation can be carried out at room temperature.
# Di-β-sitosteryl citrate is formed in a heterogeneous reaction between citric acid and β-sitosterol, at the same reaction conditions as described in the previous section. The compound is separated from the sterol monocitrate on the basis of solubility, using ethanol extraction. The method is based on the fact that the solubility of sterol monocitrate in ethyl alcohol is ten times that of di-β-sitosteryl citrate.
# A minimum of 7 ml of water was azeotropically distilled from the reaction mixture over 7-8 hours; as the conversion approached theoretical, upon cooling no lactic acid or plant sterols were crystallized from the reaction mixture. The cooled reaction mixture was a yellowish, viscose liquid. The toluene was removed from the reaction mixture in a vacuum (29 mmHg) at a temperature of 80-90° C. […] As a whole, the material obtained was useable and contained very little or no free plant sterols and/or lactic acid.
# [10] = soluble matter in spirit vinegar (10 weight-% acetic acid); format: physicochemical; conditions: spirit vinegar with 10 weight-% acetic acid; 12 hours standing without stirring
# Excerpt: 6.80 g β-sitosterol citrate from example 12 90.7 g Rajamäki Spirit Vinegar (Primalco Oy, Nurmijärvi), containing 10 weight-% acetic acid.
compound,measurement,setting,value
CC[C@H](CC[C@@H](C)[C@H]1CC[C@H]2[C@@H]3CC[C@H]4C[C@@H](O)CC[C@]4(C)[C@H]3CC[C@]12C)C(C)C [sitostanol],total serum cholesterol,[1],decrease in the total serum cholesterol
soy sterol-2-carbamate glutaric acid K^+—salt,lowering blood cholesterol concentrations,[2],proved to lower blood cholesterol concentrations
CC[C@H](CC[C@@H](C)[C@H]1CC[C@H]2[C@@H]3CC[C@H]4C[C@@H](O)CC[C@]4(C)[C@H]3CC[C@]12C)C(C)C [β-sitostanol],inhibition of cholesterol absorption,[3],83%
CC(=O)O [acetate],cholesterol absorption lowering effect,[4],equally as effective
CC[C@H](CC[C@@H](C)[C@H]1CC[C@H]2[C@@H]3CC=C4C[C@@H](O)CC[C@]4(C)[C@H]3CC[C@]12C)C(C)C [β-sitosterol],inhibition of cholesterol absorption,[3],50%
same,response in this test,"[5]; source material as comparison, which test is meant is not clear",did not give a positive response
"CC[C@H](CC[C@@H](C)[C@H]1CC[C@H]2[C@@H]3C[C@@H](OC=O)[C@@]4(O)C[C@@H](OC=O)CC[C@]4(C)[C@H]3CC[C@]12C)C(C)C [sitostane-3β-, 5α-, 6β-triol-3,6-diformiate]",lowering of triglyceride content of the blood serum,[6],moderately lower
same,lowering of triglyceride content of liver,[5]; guinea pigs,54%
same,acute toxicity,[7],did not show toxicity
"CCC(CCC(C)C1CCC2C3CC=C4CC(OC(=O)CCC(=O)O)CCC4(C)C3CCC12C)C(C)C (stereo not drawn) [Example 3, β-sitosterol Hydrogen Succinate]",changes in the sample after heating,[8],almost reversible
same,lowering of the cholesterol content of blood,[4]; compared with phytosterol monocarboxyl acid esters,as effectively as the phytosterol monocarboxyl acid esters
"CC[C@H](CC[C@@H](C)[C@H]1CC[C@H]2[C@@H]3CC=C4C[C@@H](OC(=O)C(C)O)CC[C@]4(C)[C@H]3CC[C@]12C)C(C)C (stereo partly drawn) [Example 19, β-sitosterol Lactate]",solubility in alcohol,[9]; in words,highly soluble in alcohol
same,solubility in lipids and ethanol,"[9]; reaction product, viscose liquid at 60-100° C.",soluble in lipids and ethanol
decanoate,cholesterol absorption lowering effect,[4],equally as effective
oleate,cholesterol absorption lowering effect,[4],equally as effective
β-sitosterol citrate [Example 12],amount of the sterol citrate dissolved,[10],0.74%
